Reference: paper PMC6375636, “Monotherapy with a low-dose lipopeptide HIV fusion inhibitor maintains long-term viral suppression in rhesus macaques” (PLoS Pathogens, 2019)
Peptide text beside a SMILES is read from it. * marks the point of attachment. Docosanoyl = CCCCCCCCCCCCCCCCCCCCCC(=O)*; Arachidoyl = CCCCCCCCCCCCCCCCCCCC(=O)*; Stearoyl = CCCCCCCCCCCCCCCCCC(=O)*; X1 = CCCCCCCCCCCCCCCCCCCCCCCC(=O)*; Octanoyl = CCCCCCCC(=O)*

Assays:
[1] = biological target: T1, HIV-1HXB2 Env (Human immunodeficiency virus type 1 group M subtype B, UniProt P04578); assay: HIV-1HXB2 Env-mediated cell-cell fusion (HL2/3 effector, TZM-bl target, luciferase reporter); type: cell-based
T1 construct: HL2/3 cells, which stably express high levels of Env, Gag, Tat, Rev, and Nef proteins of the integrated HIV-1 molecular clone HXB2/3gpt; host or cells: HL2/3 cells (effector), cocultured with TZM-bl target cells
Method: The inhibitory activities of inhibitors on HIV-1HXB2 Env-mediated cell-cell fusion were determined by a reporter gene assay based on the activation of an HIV LTR-driven luciferase cassette in TZM-bl cells (target) by HIV-1 tat from HL2/3 cells (effector). Briefly, 1 x 10^4/well of TZM-bl cells were plated in 96-well plates and incubated at 37°C overnight. Then, 3 x 10^4/well of HL2/3 cells were cocultured with target cells for 6 h at 37°C in the presence or absence of an inhibitor at graded concentrations. Luciferase activity was measured using luciferase assay reagents and a Luminescence Counter (Promega, Madison, Wisconsin, USA).

[2] = biological target: HIV-1JRCSF; type: cell-based; details: Fig 1; replication-competent virus; mean ± SD of three assays in triplicate; read-out: Anti-HIV activity (IC50, pM) JRCSF infection
Method: (§1) The inhibitory activities of inhibitors against HIV-1 pseudoviruses and replication-competent isolates were measured as described previously. Briefly, HIV-1 pseudoviruses were generated via the cotransfection of HEK293T cells with an Env-expressing plasmid and a backbone plasmid that encodes Env-defective, luciferase-expressing HIV-1 genome (pSG3Δenv). Viral stocks of replication-competent HIV-1 isolates were generated by transfecting viral molecular clones into HEK293T cells. Culture supernatants were harvested at 48 h posttransfection, and 50% tissue culture infectious doses (TCID50) in TZM-bl cells were determined. Inhibitors were prepared in 3-fold dilutions, mixed with 100 TCID50 of a virus, and then incubated for 1 h at room temperature. The mixture was added to TZM-bl cells (10^4/well), and the cells were incubated for additional 48 h at 37°C. Luciferase activity was measured as described above.

[3] = biological target: T2, gp41 NHR-derived target mimic peptide N39 (Human immunodeficiency virus type 1 group M subtype B, UniProt P04578); assay: CD spectroscopy of lipopeptides in complex with target mimic peptide N39; type: binding, HIV-1; set-up: [θ]222: unit not given here; details: complex with N39, each peptide 10 μM in PBS; representative of 2 assays
T2 construct: the gp41 NHR-derived target mimic peptide N39
Excerpt: Spectra were corrected by subtracting a solvent blank.

[4] = tested on: HIV-1NL4-3(D36G) pseudovirus; type: cell-based; details: Fig 1; NL4-3(D36G) pseudovirus; mean ± SD of three assays in triplicate; read-out: Anti-HIV activity (IC50, pM) NL4-3 entry
Method: as §1, with “Culture supernatants were harvested at 48 h posttransfection, and 50% tissue culture infectious doses (TCID50) in TZM-bl cells were determined.” left out, “The mixture was added to TZM-bl cells (10^4/well), and the cells were incubated for additional 48 h at 37°C.” left out

[5] = lipopeptide alone, 10 μM in PBS, representative of 2 assays; for Helix content (%): [θ]222 / -33,000

T1 sequence (P04578 512-856): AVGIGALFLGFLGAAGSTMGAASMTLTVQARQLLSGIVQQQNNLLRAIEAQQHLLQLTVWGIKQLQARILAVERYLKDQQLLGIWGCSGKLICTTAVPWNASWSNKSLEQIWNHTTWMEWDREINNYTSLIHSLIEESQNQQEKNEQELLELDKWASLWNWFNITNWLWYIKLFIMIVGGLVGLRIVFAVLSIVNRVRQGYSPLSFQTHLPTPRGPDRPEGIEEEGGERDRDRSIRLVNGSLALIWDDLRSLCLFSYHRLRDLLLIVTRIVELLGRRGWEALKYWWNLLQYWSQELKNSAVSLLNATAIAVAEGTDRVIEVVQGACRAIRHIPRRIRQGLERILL
T2 sequence (P04578 528-566): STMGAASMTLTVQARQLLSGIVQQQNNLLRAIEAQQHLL

Row | Compound | IC50 [1] [nM] | IC50 [2] [pM] | Helix content (%) [3] [%] | [θ]222 [3] | IC50 [4] [pM] | Helix content (%) [5] [%] | Tm (°C) ([5]; ellipticity at 222 nm, 20-98°C, 2°C/min)
1 | CCCCCCCCCCCCCCCCCC(=O)NCCCC[C@H](NC(=O)[C@H](CCC(=O)O)NC(=O)[C@H](CC(C)C)NC(=O)[C@H](CCCCN)NC(=O)[C@H](CCCCN)NC(=O)[C@H](CC(C)C)NC(=O)[C@H](CCC(=O)O)NC(=O)[C@H](CCC(=O)O)NC(=O)[C@H](CCC(=O)O)NC(=O)[C@H](CC(N)=O)NC(=O)[C@H](CCCCN)NC(=O)[C@H](CCCCN)NC(=O)[C@H](CCC(N)=O)NC(=O)[C@H](CCC(N)=O)NC(=O)[C@H](CCC(=O)O)NC(=O)[C@H](CCC(=O)O)NC(=O)[C@H](C)NC(=O)[C@H](CCCCN)NC(=O)[C@H](CCCCN)NC(=O)[C@H](CC(C)C)NC(=O)[C@H](CC(C)C)NC(=O)[C@H](CCC(=O)O)NC(=O)[C@H](CCC(=O)O)NC(=O)[C@@H](NC(=O)[C@H](CCCCN)NC(C)=O)[C@@H](C)CC)C(N)=O [LP-89] (Ac-KIEELLKKAEEQQKKNEEELKKLEK(Stearoyl)-NH2) | 0.0733 ± 0.021 | 12.4 ± 1.22 | 51 | -16781 | 10.8 ± 3.14 | 43 | –
2 | CCCCCCCCCCCCCCCCCCCC(=O)NCCCC[C@H](NC(=O)[C@H](CCC(=O)O)NC(=O)[C@H](CC(C)C)NC(=O)[C@H](CCCCN)NC(=O)[C@H](CCCCN)NC(=O)[C@H](CC(C)C)NC(=O)[C@H](CCC(=O)O)NC(=O)[C@H](CCC(=O)O)NC(=O)[C@H](CCC(=O)O)NC(=O)[C@H](CC(N)=O)NC(=O)[C@H](CCCCN)NC(=O)[C@H](CCCCN)NC(=O)[C@H](CCC(N)=O)NC(=O)[C@H](CCC(N)=O)NC(=O)[C@H](CCC(=O)O)NC(=O)[C@H](CCC(=O)O)NC(=O)[C@H](C)NC(=O)[C@H](CCCCN)NC(=O)[C@H](CCCCN)NC(=O)[C@H](CC(C)C)NC(=O)[C@H](CC(C)C)NC(=O)[C@H](CCC(=O)O)NC(=O)[C@H](CCC(=O)O)NC(=O)[C@@H](NC(=O)[C@H](CCCCN)NC(=O)[C@H](CCC(N)=O)NC(=O)[C@H](CCC(=O)O)NC(=O)[C@H](Cc1c[nH]c2ccccc12)NC(C)=O)[C@@H](C)CC)C(N)=O [LP-79] (Ac-WEQKIEELLKKAEEQQKKNEEELKKLEK(Arachidoyl)-NH2) | 0.0387 ± 0.00447 | 5.7 ± 0.86 | 55 | -18030 | 4.39 ± 0.67 | 48 | 56
3 | CCCCCCCCCCCCCCCCCC(=O)NCCCC[C@H](NC(=O)[C@H](CCC(=O)O)NC(=O)[C@H](CC(C)C)NC(=O)[C@H](CCCCN)NC(=O)[C@H](CCCCN)NC(=O)[C@H](CC(C)C)NC(=O)[C@H](CCC(=O)O)NC(=O)[C@H](CCC(=O)O)NC(=O)[C@H](CCC(=O)O)NC(=O)[C@H](CC(N)=O)NC(=O)[C@H](CCCCN)NC(=O)[C@H](CCCCN)NC(=O)[C@H](CCC(N)=O)NC(=O)[C@H](CCC(N)=O)NC(=O)[C@H](CCC(=O)O)NC(=O)[C@H](CCC(=O)O)NC(=O)[C@H](C)NC(=O)[C@H](CCCCN)NC(=O)[C@H](CCCCN)NC(=O)[C@H](CC(C)C)NC(=O)[C@H](CC(C)C)NC(=O)[C@H](CCC(=O)O)NC(=O)[C@H](CCC(=O)O)NC(=O)[C@@H](NC(=O)[C@H](CCCCN)NC(=O)[C@H](CCC(N)=O)NC(=O)[C@H](CCC(=O)O)NC(C)=O)[C@@H](C)CC)C(N)=O [LP-88] (Ac-EQKIEELLKKAEEQQKKNEEELKKLEK(Stearoyl)-NH2) | 0.0144 ± 0.00137 | 4.29 ± 0.58 | 55 | -18242 | 4.26 ± 1.3 | 34 | –
4 | CCCCCCCCCCCCCCCCCCCCCC(=O)NCCCC[C@H](NC(=O)[C@H](CCC(=O)O)NC(=O)[C@H](CC(C)C)NC(=O)[C@H](CCCCN)NC(=O)[C@H](CCCCN)NC(=O)[C@H](CC(C)C)NC(=O)[C@H](CCC(=O)O)NC(=O)[C@H](CCC(=O)O)NC(=O)[C@H](CCC(=O)O)NC(=O)[C@H](CC(N)=O)NC(=O)[C@H](CCCCN)NC(=O)[C@H](CCCCN)NC(=O)[C@H](CCC(N)=O)NC(=O)[C@H](CCC(N)=O)NC(=O)[C@H](CCC(=O)O)NC(=O)[C@H](CCC(=O)O)NC(=O)[C@H](C)NC(=O)[C@H](CCCCN)NC(=O)[C@H](CCCCN)NC(=O)[C@H](CC(C)C)NC(=O)[C@H](CC(C)C)NC(=O)[C@H](CCC(=O)O)NC(=O)[C@H](CCC(=O)O)NC(=O)[C@@H](NC(=O)[C@H](CCCCN)NC(=O)[C@H](CCC(N)=O)NC(=O)[C@H](CCC(=O)O)NC(=O)[C@H](Cc1c[nH]c2ccccc12)NC(C)=O)[C@@H](C)CC)C(N)=O [LP-78] (Ac-WEQKIEELLKKAEEQQKKNEEELKKLEK(Docosanoyl)-NH2) | 0.0544 ± 0.00709 | 7.16 ± 2.01 | – | – | 3.73 ± 0.45 | – | –
5 | CCCCCCCC(=O)NCCCC[C@H](NC(=O)[C@H](CCC(=O)O)NC(=O)[C@H](CC(C)C)NC(=O)[C@H](CCCCN)NC(=O)[C@H](CCCCN)NC(=O)[C@H](CC(C)C)NC(=O)[C@H](CCC(=O)O)NC(=O)[C@H](CCC(=O)O)NC(=O)[C@H](CCC(=O)O)NC(=O)[C@H](CC(N)=O)NC(=O)[C@H](CCCCN)NC(=O)[C@H](CCCCN)NC(=O)[C@H](CCC(N)=O)NC(=O)[C@H](CCC(N)=O)NC(=O)[C@H](CCC(=O)O)NC(=O)[C@H](CCC(=O)O)NC(=O)[C@H](C)NC(=O)[C@H](CCCCN)NC(=O)[C@H](CCCCN)NC(=O)[C@H](CC(C)C)NC(=O)[C@H](CC(C)C)NC(=O)[C@H](CCC(=O)O)NC(=O)[C@H](CCC(=O)O)NC(=O)[C@@H](NC(=O)[C@H](CCCCN)NC(=O)[C@H](CCC(N)=O)NC(=O)[C@H](CCC(=O)O)NC(=O)[C@H](Cc1c[nH]c2ccccc12)NC(C)=O)[C@@H](C)CC)C(N)=O [LP-82] (Ac-WEQKIEELLKKAEEQQKKNEEELKKLEK(Octanoyl)-NH2) | 3.21 ± 1.43 | 3710 ± 1080 | 39 | -12910 | 1010 ± 344 | 22 | –
6 | CCCCCCCCCCCCCCCCCCCCCCCC(=O)NCCCC[C@H](NC(=O)[C@H](CCC(=O)O)NC(=O)[C@H](CC(C)C)NC(=O)[C@H](CCCCN)NC(=O)[C@H](CCCCN)NC(=O)[C@H](CC(C)C)NC(=O)[C@H](CCC(=O)O)NC(=O)[C@H](CCC(=O)O)NC(=O)[C@H](CCC(=O)O)NC(=O)[C@H](CC(N)=O)NC(=O)[C@H](CCCCN)NC(=O)[C@H](CCCCN)NC(=O)[C@H](CCC(N)=O)NC(=O)[C@H](CCC(N)=O)NC(=O)[C@H](CCC(=O)O)NC(=O)[C@H](CCC(=O)O)NC(=O)[C@H](C)NC(=O)[C@H](CCCCN)NC(=O)[C@H](CCCCN)NC(=O)[C@H](CC(C)C)NC(=O)[C@H](CC(C)C)NC(=O)[C@H](CCC(=O)O)NC(=O)[C@H](CCC(=O)O)NC(=O)[C@@H](NC(=O)[C@H](CCCCN)NC(=O)[C@H](CCC(N)=O)NC(=O)[C@H](CCC(=O)O)NC(=O)[C@H](Cc1c[nH]c2ccccc12)NC(C)=O)[C@@H](C)CC)C(N)=O [LP-77] (Ac-WEQKIEELLKKAEEQQKKNEEELKKLEK(X1)-NH2) | 0.161 ± 0.00664 | 12 ± 1.34 | – | – | 7.98 ± 0.97 | – | –
7 | CCCCCCCCCCCCCCCCCC(=O)NCCCC[C@H](NC(=O)[C@H](CCCCN)NC(=O)[C@H](CC(C)C)NC(=O)[C@H](CCC(=O)O)NC(=O)[C@H](CCC(=O)O)NC(=O)[C@H](CCC(=O)O)NC(=O)[C@H](CC(N)=O)NC(=O)[C@H](CCCCN)NC(=O)[C@H](CCCCN)NC(=O)[C@H](CCC(N)=O)NC(=O)[C@H](CCC(N)=O)NC(=O)[C@H](CCC(=O)O)NC(=O)[C@H](CCC(=O)O)NC(=O)[C@H](C)NC(=O)[C@H](CCCCN)NC(=O)[C@H](CCCCN)NC(=O)[C@H](CC(C)C)NC(=O)[C@H](CC(C)C)NC(=O)[C@H](CCC(=O)O)NC(=O)[C@H](CCC(=O)O)NC(=O)[C@@H](NC(=O)[C@H](CCCCN)NC(=O)[C@H](CCC(N)=O)NC(=O)[C@H](CCC(=O)O)NC(=O)[C@H](Cc1c[nH]c2ccccc12)NC(C)=O)[C@@H](C)CC)C(N)=O [LP-91] (Ac-WEQKIEELLKKAEEQQKKNEEELKK(Stearoyl)-NH2) | 0.0131 ± 0.00125 | 11.1 ± 2.13 | 55 | -18156 | 7.33 ± 0.49 | 42 | –
8 | Ac-WEQKIEELLKKAEEQQKKNEEELKKLEK-NH2 [Lipopeptide P-52] | 1.34 ± 0.119 | 2170 ± 146 | – | – | 2620 ± 235 | – | –
